Patent publication US10266537B2, “3-acetylenyl-pyrazole-pyrimidine derivative, and preparation method therefor and uses thereof” (Si Chuan University, priority 2015, dated 2019)
Each block holds one molecule with its values, some of them ahead of it.

Columns and labels:
H4 = assay: Cell proliferation inhibition assay (MTT); type: cell-based; conditions: Homo sapiens, 72 hours, read-out: Proliferation inhibitory activity IC50
Hck = Hck (Homo sapiens (Human), UniProt P08631); assay: Kinase inhibition assay (KinaseProfiler, 33P-ATP); type: biochemical; conditions: Hck(h); 10 μM; read-out: The percentage of the remaining active protein
GRK5(h) = GRK5(h) (Homo sapiens (Human), UniProt P34947); assay: Kinase inhibition assay (KinaseProfiler, 33P-ATP); type: biochemical; conditions: read-out: The percentage of the remaining active protein
Rsk4(h) = Rsk4(h) (Homo sapiens (Human), UniProt Q9UK32); assay: Kinase inhibition assay (KinaseProfiler, 33P-ATP); type: biochemical; conditions: read-out: The percentage of the remaining active protein
Fms(Y969C)(h) = Fms(Y969C)(h) (Homo sapiens (Human), UniProt P07333, Y969C); assay: Kinase inhibition assay (KinaseProfiler, 33P-ATP); type: biochemical; conditions: read-out: The percentage of the remaining active protein
PKCβI(h) = PKCβI(h) (Homo sapiens (Human), UniProt P05771); assay: Kinase inhibition assay (KinaseProfiler, 33P-ATP); type: biochemical; conditions: read-out: The percentage of the remaining active protein
CLK2(h) = CLK2(h) (Homo sapiens (Human), UniProt P49760); assay: Kinase inhibition assay (KinaseProfiler, 33P-ATP); type: biochemical; conditions: read-out: The percentage of the remaining active protein
Tie2(R849W)(h) = Tie2(R849W)(h) (Homo sapiens (Human), UniProt Q02763, R849W); assay: Kinase inhibition assay (KinaseProfiler, 33P-ATP); type: biochemical; conditions: read-out: The percentage of the remaining active protein
TAO3 = TAO3 (Homo sapiens (Human), UniProt Q9H2K8); assay: Kinase inhibition assay (KinaseProfiler, 33P-ATP); type: biochemical; conditions: TAO3(h), read-out: The percentage of the remaining active protein
TrkC(h) = TrkC(h) (Homo sapiens (Human), UniProt Q16288); assay: Kinase inhibition assay (KinaseProfiler, 33P-ATP); type: biochemical; conditions: read-out: The percentage of the remaining active protein
MINK(h) = MINK(h) (Homo sapiens (Human), UniProt Q8N4C8); assay: Kinase inhibition assay (KinaseProfiler, 33P-ATP); type: biochemical; conditions: read-out: The percentage of the remaining active protein
Arg(m) = Arg(m) (Mus musculus (Mouse), UniProt Q4JIM5); assay: Kinase inhibition assay (KinaseProfiler, 33P-ATP); type: biochemical; conditions: read-out: The percentage of the remaining active protein
NIM1(h) = NIM1(h) (Homo sapiens (Human), UniProt Q8IY84); assay: Kinase inhibition assay (KinaseProfiler, 33P-ATP); type: biochemical; conditions: read-out: The percentage of the remaining active protein
[1] = biological target: PI3 Kinase (p110d/p85a)(h) (Homo sapiens (Human), UniProt O00329); assay: Kinase inhibition assay (KinaseProfiler, 33P-ATP); type: biochemical; conditions: read-out: The percentage of the remaining active protein
CaMKK2(h) = CaMKK2(h) (Homo sapiens (Human), UniProt Q96RR4); assay: Kinase inhibition assay (KinaseProfiler, 33P-ATP); type: biochemical; conditions: read-out: The percentage of the remaining active protein
MKK6(h) = MKK6(h) (Homo sapiens (Human), UniProt P52564); assay: Kinase inhibition assay (KinaseProfiler, 33P-ATP); type: biochemical; conditions: read-out: The percentage of the remaining active protein
Abl(Y253F)(h) = Abl(Y253F)(h) (Homo sapiens (Human), UniProt P00519, Y253F); assay: Kinase inhibition assay (KinaseProfiler, 33P-ATP); type: biochemical; conditions: read-out: The percentage of the remaining active protein
HIPK1(h) = HIPK1(h) (Homo sapiens (Human), UniProt Q86Z02); assay: Kinase inhibition assay (KinaseProfiler, 33P-ATP); type: biochemical; conditions: read-out: The percentage of the remaining active protein
PKCε(h) = PKCε(h) (Homo sapiens (Human), UniProt Q02156); assay: Kinase inhibition assay (KinaseProfiler, 33P-ATP); type: biochemical; conditions: read-out: The percentage of the remaining active protein
PrKX(h) = PrKX(h) (Homo sapiens (Human), UniProt P51817); assay: Kinase inhibition assay (KinaseProfiler, 33P-ATP); type: biochemical; conditions: read-out: The percentage of the remaining active protein
PRAK(h) = PRAK(h) (Homo sapiens (Human), UniProt Q8IW41); assay: Kinase inhibition assay (KinaseProfiler, 33P-ATP); type: biochemical; conditions: read-out: The percentage of the remaining active protein
CLK1(h) = CLK1(h) (Homo sapiens (Human), UniProt P49759); assay: Kinase inhibition assay (KinaseProfiler, 33P-ATP); type: biochemical; conditions: read-out: The percentage of the remaining active protein
PANC-1 = assay: Cell proliferation inhibition assay (MTT); type: cell-based; conditions: Homo sapiens, 72 hours, read-out: Proliferation inhibitory activity IC50
AMPKα2(h) = AMPKα2(h) (Homo sapiens (Human), UniProt P54646); assay: Kinase inhibition assay (KinaseProfiler, 33P-ATP); type: biochemical; conditions: read-out: The percentage of the remaining active protein
IRAK1(h) = IRAK1(h) (Homo sapiens (Human), UniProt P51617); assay: Kinase inhibition assay (KinaseProfiler, 33P-ATP); type: biochemical; conditions: read-out: The percentage of the remaining active protein
Met(Y1248D)(h) = Met(Y1248D)(h) (Homo sapiens (Human), UniProt P08581, Y1248D); assay: Kinase inhibition assay (KinaseProfiler, 33P-ATP); type: biochemical; conditions: read-out: The percentage of the remaining active protein
[2] = biological target: PI3 Kinase (p110a(E542K)/p85a)(h) (Homo sapiens (Human), UniProt P42336, E542K); assay: Kinase inhibition assay (KinaseProfiler, 33P-ATP); type: biochemical; conditions: read-out: The percentage of the remaining active protein
DNA-PK(h) = DNA-PK(h) (Homo sapiens (Human), UniProt P78527); assay: Kinase inhibition assay (KinaseProfiler, 33P-ATP); type: biochemical; conditions: read-out: The percentage of the remaining active protein
PDK1(h) = PDK1(h) (Homo sapiens (Human), UniProt O15530); assay: Kinase inhibition assay (KinaseProfiler, 33P-ATP); type: biochemical; conditions: read-out: The percentage of the remaining active protein
CK1γ1(h) = CK1γ1(h) (Homo sapiens (Human), UniProt Q9HCP0); assay: Kinase inhibition assay (KinaseProfiler, 33P-ATP); type: biochemical; conditions: read-out: The percentage of the remaining active protein
WNK3(h) = WNK3(h) (Homo sapiens (Human), UniProt Q9BYP7); assay: Kinase inhibition assay (KinaseProfiler, 33P-ATP); type: biochemical; conditions: read-out: The percentage of the remaining active protein
CDK1/cyclinB(h) = CDK1/cyclinB(h) (Homo sapiens (Human), UniProt P06493); assay: Kinase inhibition assay (KinaseProfiler, 33P-ATP); type: biochemical; conditions: read-out: The percentage of the remaining active protein
MKK4(m) = MKK4(m) (Mus musculus (Mouse), UniProt P47809); assay: Kinase inhibition assay (KinaseProfiler, 33P-ATP); type: biochemical; conditions: read-out: The percentage of the remaining active protein
TLK1(h) = TLK1(h) (Homo sapiens (Human), UniProt Q9UKI8); assay: Kinase inhibition assay (KinaseProfiler, 33P-ATP); type: biochemical; conditions: read-out: The percentage of the remaining active protein
JNK2α2(h) = JNK2α2(h) (Homo sapiens (Human), UniProt P45984); assay: Kinase inhibition assay (KinaseProfiler, 33P-ATP); type: biochemical; conditions: read-out: The percentage of the remaining active protein
ZR-75-1 = assay: Cell proliferation inhibition assay (MTT); type: cell-based; conditions: Homo sapiens, 72 hours, read-out: Proliferation inhibitory activity IC50
MAPK2(h) = MAPK2(h) (Homo sapiens (Human), UniProt P28482); assay: Kinase inhibition assay (KinaseProfiler, 33P-ATP); type: biochemical; conditions: read-out: The percentage of the remaining active protein
Chain of MAPK2(h) (P28482 whole entry): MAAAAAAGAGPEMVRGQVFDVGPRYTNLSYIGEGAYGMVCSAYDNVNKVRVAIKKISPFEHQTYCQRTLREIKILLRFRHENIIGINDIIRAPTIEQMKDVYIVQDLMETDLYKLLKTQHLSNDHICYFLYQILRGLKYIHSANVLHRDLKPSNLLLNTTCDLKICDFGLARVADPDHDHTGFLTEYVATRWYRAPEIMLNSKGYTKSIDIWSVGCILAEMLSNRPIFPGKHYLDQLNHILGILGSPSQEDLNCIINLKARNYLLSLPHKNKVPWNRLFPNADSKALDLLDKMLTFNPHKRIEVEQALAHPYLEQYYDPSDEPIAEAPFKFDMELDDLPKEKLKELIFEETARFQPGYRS

Chain of TrkC(h) (Q16288 32-839): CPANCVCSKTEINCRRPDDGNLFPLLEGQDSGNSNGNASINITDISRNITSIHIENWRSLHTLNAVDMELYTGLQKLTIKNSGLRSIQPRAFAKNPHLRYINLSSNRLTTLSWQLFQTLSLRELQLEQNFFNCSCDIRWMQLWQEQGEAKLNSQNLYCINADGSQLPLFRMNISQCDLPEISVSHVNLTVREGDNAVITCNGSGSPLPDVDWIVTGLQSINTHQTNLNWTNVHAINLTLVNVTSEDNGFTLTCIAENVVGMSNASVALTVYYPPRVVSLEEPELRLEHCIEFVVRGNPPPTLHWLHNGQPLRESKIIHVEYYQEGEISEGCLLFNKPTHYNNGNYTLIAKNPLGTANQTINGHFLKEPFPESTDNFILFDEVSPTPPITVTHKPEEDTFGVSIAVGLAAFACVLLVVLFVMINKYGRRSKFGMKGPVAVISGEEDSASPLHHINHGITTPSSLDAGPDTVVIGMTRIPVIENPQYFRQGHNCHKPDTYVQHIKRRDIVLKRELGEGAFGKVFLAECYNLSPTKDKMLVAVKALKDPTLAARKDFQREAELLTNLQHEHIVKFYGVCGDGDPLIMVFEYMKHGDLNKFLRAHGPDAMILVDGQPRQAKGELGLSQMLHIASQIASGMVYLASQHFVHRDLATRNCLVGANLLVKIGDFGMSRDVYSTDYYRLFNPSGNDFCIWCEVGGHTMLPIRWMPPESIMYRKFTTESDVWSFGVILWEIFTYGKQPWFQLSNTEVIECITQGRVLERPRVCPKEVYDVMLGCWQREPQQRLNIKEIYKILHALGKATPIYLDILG
Chain of CK1γ1(h) (Q9HCP0 whole entry): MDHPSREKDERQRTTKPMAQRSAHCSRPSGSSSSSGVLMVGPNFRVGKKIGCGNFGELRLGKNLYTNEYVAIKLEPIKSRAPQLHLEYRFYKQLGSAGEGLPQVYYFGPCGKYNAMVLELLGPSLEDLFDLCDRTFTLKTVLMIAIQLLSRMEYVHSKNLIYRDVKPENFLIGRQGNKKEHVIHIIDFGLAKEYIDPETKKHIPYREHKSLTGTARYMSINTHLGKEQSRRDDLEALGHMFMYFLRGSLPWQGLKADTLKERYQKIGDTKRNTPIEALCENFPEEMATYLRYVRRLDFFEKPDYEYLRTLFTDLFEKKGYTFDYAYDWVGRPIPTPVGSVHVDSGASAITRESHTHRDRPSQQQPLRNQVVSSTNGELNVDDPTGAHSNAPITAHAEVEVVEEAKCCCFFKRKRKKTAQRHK
Chain of MKK6(h) (P52564 whole entry): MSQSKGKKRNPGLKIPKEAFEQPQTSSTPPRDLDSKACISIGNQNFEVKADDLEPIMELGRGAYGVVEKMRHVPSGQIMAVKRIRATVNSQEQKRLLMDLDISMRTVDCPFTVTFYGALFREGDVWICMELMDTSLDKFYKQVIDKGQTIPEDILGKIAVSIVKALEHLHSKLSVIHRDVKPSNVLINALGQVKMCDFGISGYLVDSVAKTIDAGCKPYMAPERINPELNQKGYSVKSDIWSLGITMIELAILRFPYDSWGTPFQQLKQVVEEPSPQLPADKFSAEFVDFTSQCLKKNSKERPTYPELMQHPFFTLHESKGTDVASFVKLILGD
Chain of PKCβI(h) (P05771 whole entry): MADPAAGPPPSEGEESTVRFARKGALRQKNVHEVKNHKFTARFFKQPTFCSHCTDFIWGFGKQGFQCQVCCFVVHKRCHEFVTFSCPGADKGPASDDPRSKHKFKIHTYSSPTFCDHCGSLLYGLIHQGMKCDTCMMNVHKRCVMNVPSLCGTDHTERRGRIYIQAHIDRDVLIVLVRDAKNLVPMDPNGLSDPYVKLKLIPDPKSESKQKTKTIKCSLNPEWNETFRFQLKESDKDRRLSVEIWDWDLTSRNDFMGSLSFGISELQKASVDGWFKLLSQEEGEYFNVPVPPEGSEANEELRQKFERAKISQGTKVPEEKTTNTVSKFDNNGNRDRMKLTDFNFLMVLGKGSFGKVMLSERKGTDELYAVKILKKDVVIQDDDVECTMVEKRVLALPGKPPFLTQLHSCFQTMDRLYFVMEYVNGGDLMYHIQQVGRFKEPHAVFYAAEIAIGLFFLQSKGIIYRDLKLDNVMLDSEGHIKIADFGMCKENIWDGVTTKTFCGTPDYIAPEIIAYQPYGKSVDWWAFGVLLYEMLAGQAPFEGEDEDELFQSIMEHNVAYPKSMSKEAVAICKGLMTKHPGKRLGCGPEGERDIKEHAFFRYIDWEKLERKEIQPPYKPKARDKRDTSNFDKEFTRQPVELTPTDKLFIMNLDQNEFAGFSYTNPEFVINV
Chain of IRAK1(h) (P51617 whole entry): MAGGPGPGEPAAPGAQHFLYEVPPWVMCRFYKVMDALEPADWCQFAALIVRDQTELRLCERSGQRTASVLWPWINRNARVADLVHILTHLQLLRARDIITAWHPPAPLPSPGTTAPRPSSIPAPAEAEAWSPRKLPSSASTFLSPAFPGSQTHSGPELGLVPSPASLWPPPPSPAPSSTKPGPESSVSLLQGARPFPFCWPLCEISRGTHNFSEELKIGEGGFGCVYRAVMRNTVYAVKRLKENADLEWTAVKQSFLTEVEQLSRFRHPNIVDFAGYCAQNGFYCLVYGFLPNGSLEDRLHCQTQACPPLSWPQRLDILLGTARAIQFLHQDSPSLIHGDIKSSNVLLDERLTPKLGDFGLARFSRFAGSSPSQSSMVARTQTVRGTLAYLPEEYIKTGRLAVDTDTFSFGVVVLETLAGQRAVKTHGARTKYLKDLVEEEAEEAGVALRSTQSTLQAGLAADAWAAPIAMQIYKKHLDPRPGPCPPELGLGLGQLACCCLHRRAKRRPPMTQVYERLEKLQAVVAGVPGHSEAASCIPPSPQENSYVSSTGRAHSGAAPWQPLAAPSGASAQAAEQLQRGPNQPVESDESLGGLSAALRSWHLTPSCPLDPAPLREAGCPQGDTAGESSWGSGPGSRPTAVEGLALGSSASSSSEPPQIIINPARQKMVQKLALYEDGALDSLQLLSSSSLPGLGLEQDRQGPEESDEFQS
Chain of Met(Y1248D)(h) (P08581 other isoform, or with tags, fused parts or gaps Y1248D): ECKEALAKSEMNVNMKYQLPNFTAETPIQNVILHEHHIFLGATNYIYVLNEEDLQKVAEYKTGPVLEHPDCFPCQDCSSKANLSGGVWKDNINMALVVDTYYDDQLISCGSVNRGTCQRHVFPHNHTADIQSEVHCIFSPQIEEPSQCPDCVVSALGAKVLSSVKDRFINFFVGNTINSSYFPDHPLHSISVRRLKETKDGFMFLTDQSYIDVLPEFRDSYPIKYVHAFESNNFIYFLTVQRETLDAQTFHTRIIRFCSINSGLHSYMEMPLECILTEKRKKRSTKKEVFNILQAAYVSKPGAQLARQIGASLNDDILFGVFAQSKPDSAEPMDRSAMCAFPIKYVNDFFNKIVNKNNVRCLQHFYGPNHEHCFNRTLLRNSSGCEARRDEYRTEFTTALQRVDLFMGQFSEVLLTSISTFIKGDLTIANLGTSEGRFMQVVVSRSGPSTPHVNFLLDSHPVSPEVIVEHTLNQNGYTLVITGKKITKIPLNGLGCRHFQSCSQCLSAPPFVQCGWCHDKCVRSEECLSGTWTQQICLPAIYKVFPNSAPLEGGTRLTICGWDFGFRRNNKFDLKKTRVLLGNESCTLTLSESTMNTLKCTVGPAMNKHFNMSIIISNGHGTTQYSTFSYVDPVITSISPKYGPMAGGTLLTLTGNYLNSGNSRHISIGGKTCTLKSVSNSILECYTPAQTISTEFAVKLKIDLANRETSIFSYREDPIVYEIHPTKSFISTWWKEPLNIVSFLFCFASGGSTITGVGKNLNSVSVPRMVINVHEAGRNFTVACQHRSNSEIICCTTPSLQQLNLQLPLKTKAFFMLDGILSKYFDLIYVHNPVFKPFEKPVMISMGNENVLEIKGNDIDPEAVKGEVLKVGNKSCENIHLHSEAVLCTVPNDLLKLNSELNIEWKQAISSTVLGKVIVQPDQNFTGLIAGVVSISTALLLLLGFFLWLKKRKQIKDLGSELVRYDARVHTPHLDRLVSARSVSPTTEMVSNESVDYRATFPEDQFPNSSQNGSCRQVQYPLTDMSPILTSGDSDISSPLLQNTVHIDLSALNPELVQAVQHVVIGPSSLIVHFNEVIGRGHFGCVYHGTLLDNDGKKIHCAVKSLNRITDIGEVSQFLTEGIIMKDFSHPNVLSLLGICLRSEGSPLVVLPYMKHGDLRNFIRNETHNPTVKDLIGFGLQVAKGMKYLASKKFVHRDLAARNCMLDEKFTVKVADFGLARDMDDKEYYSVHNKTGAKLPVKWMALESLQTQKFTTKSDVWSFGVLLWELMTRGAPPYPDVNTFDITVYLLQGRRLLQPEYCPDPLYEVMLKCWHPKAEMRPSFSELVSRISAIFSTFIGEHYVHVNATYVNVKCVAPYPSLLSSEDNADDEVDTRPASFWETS
Chain of PrKX(h) (P51817 whole entry): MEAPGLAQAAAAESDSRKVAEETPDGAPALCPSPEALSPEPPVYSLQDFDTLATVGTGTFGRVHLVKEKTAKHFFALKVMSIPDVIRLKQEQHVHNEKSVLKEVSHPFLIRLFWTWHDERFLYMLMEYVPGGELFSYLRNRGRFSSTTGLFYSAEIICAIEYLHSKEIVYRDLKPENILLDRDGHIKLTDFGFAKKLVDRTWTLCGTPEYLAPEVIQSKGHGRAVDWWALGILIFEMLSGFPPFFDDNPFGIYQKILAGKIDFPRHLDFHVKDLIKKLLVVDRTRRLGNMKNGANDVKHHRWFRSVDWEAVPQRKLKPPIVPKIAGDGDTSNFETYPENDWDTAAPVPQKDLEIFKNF

SMILES: Cc1ccc(NC(=O)c2cccc(C(F)(F)F)c2)cc1C#Cc1nn(C2CCN(C)CC2)c2ncnc(N)c12 [Compound 31]
IC50 (H4): 1810 nM

remaining activity at 10 µM (Hck): 0% | remaining activity at 10 µM (GRK5(h)): 99% | remaining activity at 10 µM (Rsk4(h)): 44% | remaining activity at 10 µM (Fms(Y969C)(h)): 13% | remaining activity at 10 µM (PKCβI(h)): 100% | remaining activity at 10 µM (CLK2(h)): 47% | remaining activity at 10 µM (Tie2(R849W)(h)): 0% | remaining activity at 10 µM (TAO3): 2% | remaining activity at 10 µM (TrkC(h)): 17% | remaining activity at 10 µM (MINK(h)): 25% | remaining activity at 10 µM (Arg(m)): -1% | remaining activity at 10 µM (NIM1(h)): 131% | remaining activity at 10 µM [1]: 74% | remaining activity at 10 µM (CaMKK2(h)): 55% | remaining activity at 10 µM (MKK6(h)): 43% | remaining activity at 10 µM (Abl(Y253F)(h)): 0% | remaining activity at 10 µM (HIPK1(h)): 107% | remaining activity at 10 µM (PKCε(h)): 117% | remaining activity at 10 µM (PrKX(h)): 105% | remaining activity at 10 µM (PRAK(h)): 77% | remaining activity at 10 µM (CLK1(h)): 64% | IC50 (PANC-1): 1.7 to 5 µM | remaining activity at 10 µM (AMPKα2(h)): 90% | remaining activity at 10 µM (IRAK1(h)): 30% | remaining activity at 10 µM (Met(Y1248D)(h)): 105% | remaining activity at 10 µM [2]: 85% | remaining activity at 10 µM (DNA-PK(h)): 94% | remaining activity at 10 µM (PDK1(h)): 113% | remaining activity at 10 µM (CK1γ1(h)): 83% | remaining activity at 10 µM (WNK3(h)): 39% | remaining activity at 10 µM (CDK1/cyclinB(h)): 104% | remaining activity at 10 µM (MKK4(m)): 49% | remaining activity at 10 µM (TLK1(h)): 95% | remaining activity at 10 µM (JNK2α2(h)): 13% | remaining activity at 10 µM (MAPK2(h)): 108%
SMILES: Cc1ccc(NC(=O)c2ccc(C)c(C(F)(F)F)c2)cc1C#Cc1nn([C@H]2CC[C@H](O)CC2)c2ncnc(N)c12 [Compound 93]
IC50 (ZR-75-1): ~10 µM
